In one assay the target is T1, Rat M4 (Rattus norvegicus, UniProt P08485).
T1 construct: expressed in transfected cells; host or cells: CHO-K1 (ATCC), stably expressing M4 and Gqi5
T1 sequence (P08485 1-478): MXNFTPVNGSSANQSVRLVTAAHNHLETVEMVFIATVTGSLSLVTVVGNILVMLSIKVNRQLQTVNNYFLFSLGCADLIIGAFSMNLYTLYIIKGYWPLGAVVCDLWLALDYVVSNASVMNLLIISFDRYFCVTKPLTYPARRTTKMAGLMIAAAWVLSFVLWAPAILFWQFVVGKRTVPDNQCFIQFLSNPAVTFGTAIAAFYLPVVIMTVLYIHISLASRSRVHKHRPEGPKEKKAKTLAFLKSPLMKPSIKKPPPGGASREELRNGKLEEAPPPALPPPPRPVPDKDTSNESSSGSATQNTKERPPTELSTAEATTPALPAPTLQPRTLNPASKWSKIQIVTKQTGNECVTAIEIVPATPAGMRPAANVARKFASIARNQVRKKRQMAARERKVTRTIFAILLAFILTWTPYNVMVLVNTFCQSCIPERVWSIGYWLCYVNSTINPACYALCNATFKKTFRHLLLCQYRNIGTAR
Put plainly: mAChR M4 cell-based functional calcium flux assay (rat M4/Gqi5/CHO cells). The note with it: for Emin (rat M4): % ACh maximum at 30 μM. An outline of the steps: (§1)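 CHO-K1 cells stably co-expressing M4 of the given species with chimeric Gqi5 were loaded with Fluo-4 AM and read for calcium flux. Compounds (10-point, 1:3 dilutions) were added first, followed by an acetylcholine EC20 at 143 s and an EC80 at 268 s. IC50 reflects the concentration-dependent fall in the EC80 response, fitted with a four-parameter logistic.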
For orientation: A change in cytosolic calcium serves as a functional read-out for many receptors and channels.

The target in another assay is T2, Human M4 (Homo sapiens, UniProt P08173).
T2 construct: expressed in transfected cells; host or cells: CHO-K1 (ATCC), stably expressing M4 and Gqi5
T2 sequence (P08173 1-479): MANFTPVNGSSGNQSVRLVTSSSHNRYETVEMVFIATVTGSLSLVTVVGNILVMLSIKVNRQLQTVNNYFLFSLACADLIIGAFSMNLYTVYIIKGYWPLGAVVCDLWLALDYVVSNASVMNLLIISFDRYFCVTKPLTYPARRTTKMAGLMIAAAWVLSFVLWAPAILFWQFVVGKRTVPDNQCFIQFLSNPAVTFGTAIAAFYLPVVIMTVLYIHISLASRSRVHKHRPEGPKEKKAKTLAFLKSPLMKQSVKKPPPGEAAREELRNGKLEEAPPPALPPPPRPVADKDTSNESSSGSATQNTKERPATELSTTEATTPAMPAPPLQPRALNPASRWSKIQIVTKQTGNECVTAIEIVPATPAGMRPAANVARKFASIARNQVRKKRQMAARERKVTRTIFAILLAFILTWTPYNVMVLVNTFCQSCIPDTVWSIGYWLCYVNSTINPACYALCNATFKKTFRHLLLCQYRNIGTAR
Put plainly: mAChR M4 cell-based functional calcium flux assay (human M4/Gqi5/CHO cells). The following applies: for Emin (human M4): % ACh maximum at 30 μM; for IC50: decrease of the response to an EC80 concentration of acetylcholine. In a few lines: as §1

Setting [1] is: decrease of the response to an EC80 concentration of acetylcholine.
The mark [2] stands for this setting: cells printed in μM, decrease of the EC80 acetylcholine response.

For orientation: IC50 means the concentration that gives 50% inhibition. On to `CC(C)(C)CCN1CCC2(CC1)CC2CNc1ccc(-c2cnccc2C(F)(F)F)nn1` (stereo not drawn) [Compound 49, N-[[6-(3,3-dimethylbutyl)-6-azaspiro[2.5]octan-2-yl]methyl]-6-[4-(trifluoromethyl)-3-pyridyl]pyridazin-3-amine], for which, at Rat M4, the “Emin (rat M4)” value turned out to be 2.44%. For the same compound, the IC50 at Rat M4 (setting [1]) amounted to 0.0943 µM; on Human M4, 12.8 nM. For the same compound, the “Emin (human M4)” value at Human M4 is reported as 2.64%.
For `Cc1nn(C)cc1-c1ccc(NCC2CC23CCN(CCC(C)(C)C)CC3)nn1` (stereo not drawn) [Compound 50, N-[[6-(3,3-dimethylbutyl)-6-azaspiro[2.5]octan-2-yl]methyl]-6-(1,3-dimethylpyrazol-4-yl)pyridazin-3-amine], in that order: 3.70%, 0.0158 µM, 2.4 nM and 2.71%.
For `CCC(C)CN1CCC2(CC1)CC2CNc1ccc(-c2cn(C)nc2C)nn1` (stereo not drawn) [Compound 51, 6-(1,3-dimethylpyrazol-4-yl)-N-[[6-(2-methylbutyl)-6-azaspiro[2.5]octan-2-yl]methyl]pyridazin-3-amine], in that order: 7.13%, 0.808 µM, 49.5 nM and 4.31%.
Consider `CCCC(C)CN1CCC2(CC1)CC2CNc1ccc(-c2cn(C)nc2C)nn1` (stereo not drawn) [Compound 52, 6-(1,3-dimethylpyrazol-4-yl)-N-[[6-(2-methylpentyl)-6-azaspiro[2.5]octan-2-yl]methyl]pyridazin-3-amine], for which the “Emin (rat M4)” value on Rat M4 worked out at 5.80%. Also, the IC50 at Rat M4 (setting [1]) amounted to 0.578 µM. For the same compound, at Human M4, the “Emin (human M4)” value worked out at 3.9% and the IC50 worked out at 18.6 nM.
In the case of `CCN1CCC2(CC1)CC2CNc1ccc(-c2cn(C)nc2C)nn1` (stereo not drawn) [Compound 53, 6-(1,3-dimethylpyrazol-4-yl)-N-[(6-ethyl-6-azaspiro[2.5]octan-2-yl)methyl]pyridazin-3-amine], the “Emin (rat M4)” value at Rat M4 came out at 75.5%. Also, the IC50 at Rat M4 (setting [2]) is over 10 µM. In addition, at Human M4, the “Emin (human M4)” value came out at 75.5%.
Turning to `CCCN1CCC2(CC1)CC2CNc1ccc(-c2cn(C)nc2C)nn1` (stereo not drawn) [Compound 54, 6-(1,3-dimethylpyrazol-4-yl)-N-[(6-propyl-6-azaspiro[2.5]octan-2-yl)methyl]pyridazin-3-amine], the “Emin (rat M4)” value at Rat M4 came out at 53.6%. Besides, the IC50 on Rat M4 (setting [1]) is 9.49 µM; on Human M4, 4690 nM. For the same compound, on Human M4, the “Emin (human M4)” value was found to be 19.4%.
As to `Cc1nn(C)cc1-c1ccc(NCC2CC23CCN(CC2CC2)CC3)nn1` (stereo not drawn) [Compound 55, N-[[6-(cyclopropylmethyl)-6-azaspiro[2.5]octan-2-yl]methyl]-6-(1,3-dimethylpyrazol-4-yl)pyridazin-3-amine], the “Emin (rat M4)” value on Rat M4 is 45.7%. Also, the IC50 on Rat M4 (setting [2]) was over 10 µM. On Human M4, the “Emin (human M4)” value was found to be 16.7% and the IC50 worked out at 2890 nM.
As for `Cc1nn(C)cc1-c1ccc(NCC2CC23CCN(CC2CCCCC2)CC3)nn1` (stereo not drawn) [Compound 56, N-[[6-(cyclohexylmethyl)-6-azaspiro[2.5]octan-2-yl]methyl]-6-(1,3-dimethylpyrazol-4-yl)pyridazin-3-amine], the “Emin (rat M4)” value at Rat M4 is recorded as 4.14%. The values for the IC50 on Rat M4 (setting [1]) and at Human M4 were 0.0638 µM and 5.06 nM, respectively. For the same compound, the “Emin (human M4)” value on Human M4 is 3.42%.
For `Cc1nn(C)cc1-c1ccc(NCC2CC23CCN(CC24CC5CC(CC(C5)C2)C4)CC3)nn1` (stereo not drawn) [Compound 57, N-[[6-(1-adamantylmethyl)-6-azaspiro[2.5]octan-2-yl]methyl]-6-(1,3-dimethylpyrazol-4-yl)pyridazin-3-amine], in that order: 3.84%, 0.534 µM, 69.1 nM and 3.30%.
Regarding `Cc1nn(C)cc1-c1ccc(NCC2CC23CCN(Cc2ccccc2)CC3)nn1` (stereo not drawn) [Compound 58, N-[(6-benzyl-6-azaspiro[2.5]octan-2-yl)methyl]-6-(1,3-dimethylpyrazol-4-yl)pyridazin-3-amine], the “Emin (rat M4)” value on Rat M4 is 11.8%. Also, the figures for the IC50 at Rat M4 (setting [1]) and at Human M4 were 3.6 µM and 384 nM, respectively. The “Emin (human M4)” value on Human M4 stood at 4.18%.
